Tests used:
Human PKMYT1 = target: T1, Human PKMYT1 (Homo sapiens, UniProt Q99640); test: PKMYT1 biochemical ADP-Glo enzymatic assay; details: ADP-Glo
T1 construct: Human PKMYT1 75-362 was cloned as a TEV cleavable 6xHis fusion; 6xHis (TEV cleavable) (cleaved yes); made in house; host or cells: bacterial cells
T1 sequence (Q99640 75-362): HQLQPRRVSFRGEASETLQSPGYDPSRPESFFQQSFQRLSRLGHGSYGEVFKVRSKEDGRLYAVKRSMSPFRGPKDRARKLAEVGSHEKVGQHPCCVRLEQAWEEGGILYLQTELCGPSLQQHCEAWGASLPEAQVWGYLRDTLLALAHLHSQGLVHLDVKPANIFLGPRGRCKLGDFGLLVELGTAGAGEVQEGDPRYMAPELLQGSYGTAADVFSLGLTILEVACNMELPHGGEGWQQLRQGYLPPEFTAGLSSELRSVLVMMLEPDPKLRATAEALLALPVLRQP
In short: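 IC50 values come from 10-point 3-fold series, with replicates required within 3-fold and r2 >0.9. ADP formed by PKMYT1 intrinsic ATPase (500 uM ATP, 60 min, 26° C.) was quantified by ADP-Glo luminescence. The enzyme was the TEV-cleaved kinase domain 75-362 at 15 nM, in HEPES pH 7.5 buffer.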

WEE1 = target: T2, WEE1 (Homo sapiens, UniProt P30291); test: Selectivity versus WEE1 assay (ADP-Glo enzymatic assay); format: biochemical; details: for IC50: ADP-Glo; for PKMYT1 vs. WEE1 selectivity: fold difference in selectivity for PKMYT1 over WEE1
T2 construct: purchased Thermo Fisher PR7373A
T2 sequence (P30291 whole entry): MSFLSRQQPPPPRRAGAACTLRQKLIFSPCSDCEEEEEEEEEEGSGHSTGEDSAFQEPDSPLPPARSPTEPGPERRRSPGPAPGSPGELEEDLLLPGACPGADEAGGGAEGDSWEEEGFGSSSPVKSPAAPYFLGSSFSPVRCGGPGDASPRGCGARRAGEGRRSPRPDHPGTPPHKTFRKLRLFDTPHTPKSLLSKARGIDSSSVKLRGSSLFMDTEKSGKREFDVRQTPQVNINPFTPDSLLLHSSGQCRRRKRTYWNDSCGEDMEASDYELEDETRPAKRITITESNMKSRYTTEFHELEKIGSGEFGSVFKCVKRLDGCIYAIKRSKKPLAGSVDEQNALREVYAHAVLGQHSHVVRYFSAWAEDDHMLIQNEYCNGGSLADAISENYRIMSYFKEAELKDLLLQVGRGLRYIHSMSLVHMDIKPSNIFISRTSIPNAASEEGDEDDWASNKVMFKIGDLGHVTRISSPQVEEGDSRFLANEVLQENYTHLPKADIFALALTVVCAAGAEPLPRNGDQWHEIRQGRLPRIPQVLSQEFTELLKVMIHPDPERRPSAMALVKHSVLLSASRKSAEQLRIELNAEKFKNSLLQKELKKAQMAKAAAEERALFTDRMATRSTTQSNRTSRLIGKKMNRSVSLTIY
In short: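 ADP-Glo luminescent read-out after a 60-min, 26 °C kinase reaction of 15 nM WEE1 with 30 µM ATP, in HEPES pH 7.5 buffer containing MgCl2, EGTA, Brij-35 and 1% DMSO. IC50 accepted only when replicate values agree within 3-fold and curve fit r2 exceeds 0.9.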

OVCAR 3 cells = test: Cancer cell line proliferation assay, ATP-based cell viability (Cell Titre Glow), OVCAR 3 (CCNE1-amplified); details: KYSE30 (normal CCNE1) GI50 vs. OVCAR 3 (CCNE1-amplified) GI50
In short: (§1)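 GI50 values, the concentrations halving cell growth, were derived from ATP-based luminescence (Cell Titre Glo) after PKMYT1 inhibitor exposure. Cells tested were OVCAR 3, an ovarian line with amplified CCNE1, and KYSE-30, which has normal CCNE1.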

KYSE-30 cells = test: Cancer cell line proliferation assay, ATP-based cell viability (Cell Titre Glow), KYSE-30 (normal CCNE1); details: Homo sapiens, KYSE-30 cells (normal CCNE1), concentration that achieves 50% cell growth proliferation inhibition, read-out: KYSE30 Gl50
In short: as §1

[1] = target: T3, Cellular PKMYT1 Biomarker CDK1 pT14 (Homo sapiens, UniProt Q99640); test: Inhibition of cellular PKMYT1 biomarker CDK1 pT14 in OVCAR 3 cells (immunoblot); format: cell-based; details: 20 hours incubation
T3 construct: read-out CDK1 phospho-T14 immunoblot
T3 sequence (Q99640 1-499): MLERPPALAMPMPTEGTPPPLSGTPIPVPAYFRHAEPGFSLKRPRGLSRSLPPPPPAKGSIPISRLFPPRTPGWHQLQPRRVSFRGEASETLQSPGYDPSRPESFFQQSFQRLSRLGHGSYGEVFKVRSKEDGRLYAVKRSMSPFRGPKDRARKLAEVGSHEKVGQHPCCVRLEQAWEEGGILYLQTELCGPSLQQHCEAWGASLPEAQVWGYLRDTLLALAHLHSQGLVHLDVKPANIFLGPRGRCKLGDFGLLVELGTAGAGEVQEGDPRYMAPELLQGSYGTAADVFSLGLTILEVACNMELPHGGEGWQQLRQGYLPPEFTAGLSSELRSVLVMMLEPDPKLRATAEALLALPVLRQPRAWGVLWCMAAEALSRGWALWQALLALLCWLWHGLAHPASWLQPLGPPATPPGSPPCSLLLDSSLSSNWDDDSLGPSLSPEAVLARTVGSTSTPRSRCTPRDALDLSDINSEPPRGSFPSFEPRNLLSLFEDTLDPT
Experimental: To determine compound PKMYT1 IC50 in a cellular assay, OVCAR 3 cells were incubated at 37° C. in 5% CO2 atmosphere. The cells were maintained in RPMI medium supplemented with 20% foetal bovine serum, 1X non essential amino acids, 1 mM sodium pyruvate, Glutamax and insulin. Cells were seeded into 12-well plates at low density (50,000-200,000 cells per well), grown to confluence (~350-400,000 cells per well) and then treated with a range of concentrations of PKMYT1 inhibitors. The cells were incubated 20 hours and then harvested into 1X Laemmli Sample Buffer (BIORAD) without 2-mercaptoethanol, heated to 95° C. for 5 min, centrifuged and sonicated using a microprobe for 15 sec, 21W to shear the DNA.
The samples were analysed by immunoblot on a Jess Automated Western Blot System (BioTechne). The samples were separated using the 12-230 kDa Separation Module (BioTechne,) and blotted using an anti-CDK1 phospho T14 antibody (Abcam, #ab58509) and an anti-vinculin antibody (Abcam, #126002). Specific binding was detected by fluorescence using the Anti-Rabbit Detection Module (BioTechne, #DM-001), quantified using Compass for Simple Western software, and IC50 values were calculated by regression analysis in GraphPad Prism.

[2] = 15 nM PKMYT1 kinase domain, 500 µM ATP, 60 minutes at 26° C., banded
[3] = 15 nM WEE1, 60 minutes at 26° C., banded
[4] = banded, ">N" = at least in this band but could be higher
[5] = PKMYT1 kinase domain 15 nM, banded values

## Cc1cn(-c2ccccc2)nc1Nc1ncc(C(=O)Nc2c(C)ccc(O)c2C)s1 [BAA-361, N-(3-hydroxy-2,6-dimethylphenyl)-2-((4-methyl-1-phenyl-1H-pyrazol-3-yl)amino)thiazole-5-carboxamide]
Human PKMYT1; [2]
  IC50: < 50 nM
WEE1; [3]
  IC50: > 11000 nM
WEE1; [4]
  PKMYT1 vs. WEE1 selectivity: X (100-<1000 fold)
OVCAR 3 cells
  Selectivity ratio KYSE30 Gl50 vs. OVCAR3 Gl50: Y (>20 fold)
KYSE-30 cells
  GI50: 500 to 5000 nM
[1]
  IC50: < 100 nM

## Cc1cn(-c2cnn(C(F)F)c2)nc1Nc1ncc(C(=O)Nc2c(C)ccc(O)c2C)s1 [BAA-394, 2-((1′-(difluoromethyl)-4-methyl-1′H-[1,4′-bipyrazol]-3-yl)amino)-N-(3-hydroxy-2,6-dimethylphenyl)thiazole-5-carboxamide]
Human PKMYT1; [5]
  IC50: < 50 nM
WEE1; WEE1 15 nM, banded values
  IC50: 1000 to 11000 nM
WEE1; banded
  PKMYT1 vs. WEE1 selectivity: X (100-<1000 fold)
OVCAR 3 cells
  Selectivity ratio KYSE30 Gl50 vs. OVCAR3 Gl50: Y (>20 fold)
KYSE-30 cells
  GI50: 500 to 5000 nM
[1]
  IC50: < 100 nM

## Cc1ccnc(Nc2ncc(C(=O)Nc3c(C)ccc(O)c3C)s2)c1F [BAA-424, 2-((3-fluoro-4-methylpyridin-2-yl)amino)-N-(3-hydroxy-2,6-dimethylphenyl)thiazole-5-carboxamide]
Human PKMYT1; [5]
  IC50: < 50 nM
WEE1; WEE1 15 nM, banded values
  IC50: > 11000 nM
WEE1; banded
  PKMYT1 vs. WEE1 selectivity: Y (1000-5000 fold)
OVCAR 3 cells
  Selectivity ratio KYSE30 Gl50 vs. OVCAR3 Gl50: Y (>20 fold)
KYSE-30 cells
  GI50: > 5000 nM
[1]
  IC50: < 100 nM

## Cc1cn(CCF)nc1Nc1ncc(C(=O)Nc2c(C)ccc(O)c2Br)s1 [BAA-565, N-(2-bromo-3-hydroxy-6-methylphenyl)-2-((1-(2-fluoroethyl)-4-methyl-1H-pyrazol-3-yl)amino) thiazole-5-carboxamide]
Human PKMYT1; [5]
  IC50: < 50 nM
WEE1; WEE1 15 nM, banded values
  IC50: 1000 to 11000 nM
WEE1; banded
  PKMYT1 vs. WEE1 selectivity: X (100-<1000 fold)
OVCAR 3 cells
  Selectivity ratio KYSE30 Gl50 vs. OVCAR3 Gl50: Y (>20 fold)
KYSE-30 cells
  GI50: > 5000 nM
[1]
  IC50: < 100 nM

## Cc1cn(-c2cnn(C(C)C)c2)nc1Nc1ncc(C(=O)Nc2c(C)ccc(O)c2C)s1 [BAA-391, N-(3-hydroxy-2,6-dimethylphenyl)-2-((1′-isopropyl-4-methyl-1′H-[1,4′-bipyrazol]-3-yl)amino)thiazole-5-carboxamide]
Human PKMYT1; [2]
  IC50: < 50 nM
WEE1; [3]
  IC50: 1000 to 11000 nM
WEE1; [4]
  PKMYT1 vs. WEE1 selectivity: X (100-<1000 fold)
OVCAR 3 cells
  Selectivity ratio KYSE30 Gl50 vs. OVCAR3 Gl50: Y (>20 fold)
KYSE-30 cells
  GI50: 500 to 5000 nM
[1]
  IC50: < 100 nM

## Cc1ccc(O)c(C)c1NC(=O)c1cnc(Nc2cccc(N(C)C(=O)c3c(F)cc(F)cc3F)n2)s1 [BAA-325, N-(3-hydroxy-2,6-dimethylphenyl)-2-((6-(2,4,6-trifluoro-N-methylbenzamido)pyridin-2-yl)amino)thiazole-5-carboxamide]
Human PKMYT1; [2]
  IC50: 50 to 1000 nM
WEE1; [3]
  IC50: > 11000 nM
WEE1; [4]
  PKMYT1 vs. WEE1 selectivity: Y (1000-5000 fold)
OVCAR 3 cells
  Selectivity ratio KYSE30 Gl50 vs. OVCAR3 Gl50: X (3-20 fold)
KYSE-30 cells
  GI50: > 5000 nM
[1]
  IC50: < 100 nM

## CCOc1ccc(Nc2ncc(C(=O)Nc3c(C)ccc(O)c3C)s2)nc1C [BAA-430, 2-((5-ethoxy-6-methylpyridin-2-yl)amino)-N-(3-hydroxy-2,6-dimethylphenyl)thiazole-5-carboxamide]
Human PKMYT1; [5]
  IC50: < 50 nM
WEE1; WEE1 15 nM, banded values
  IC50: > 11000 nM
WEE1; banded
  PKMYT1 vs. WEE1 selectivity: Y (1000-5000 fold)
OVCAR 3 cells
  Selectivity ratio KYSE30 Gl50 vs. OVCAR3 Gl50: Y (>20 fold)
KYSE-30 cells
  GI50: > 5000 nM
[1]
  IC50: < 100 nM
